Measured values taken from patent US5015637A, “Pyrido[3,4-b]pyrrolo[1,2-e][1,4,5]oxadiazepines” (Hoechst-Roussel Pharmaceutical Inc., priority 1990, dated 1991).

System: Phenylquinone-Induced Writhing in Mice
Assay: Inhibition of Phenylquinone-Induced Writhing in Mice (PQW)
Assay type: in vivo, mice (male CD-1 Charles River)
Procedure: Compounds I of the present invention are also useful as analgesic agents due to their ability to alleviate pain in mammals. […] Exptl. Biol. Med., 95, 729 (1957)].
Inhibition of Phenylquinone-Induced Writhing in Mice (PQW)
A 0.125% concentration of phenyl-p-benzoquinone in a 5% aqueous solution of ethyl alcohol is administered to mice (10 mL/kg, ip). This produces a characteristic "writhe" which is defined as an inward rotation of one or more feet with twisting and turning of the trunk, drawing in of the abdominal wall, lordosis, and arching of the back. A total of 28 male CD-1 Charles River mice (18-30 g) are employed for a time-response. Animals receive food and water ad libitum during their stay in the animal quarters prior to testing. Compounds are tested at 20 mg/kg, sc and are prepared with distilled water, and if insoluble one drop of Tween-80, a surfactant, is added. Compounds are administered in a dosage volume of 10 mL/kg.
Twenty mice (five per group) are administered the test compound at various pretreat time (e.g., 15, 30, 45, and 60 min) prior to phenylquinone injection. Control animals (two per group) receive an equal volume of vehicle. After the administration of phenylquinone, the mice are placed separately into 1-L beakers, and 5 min are allowed to elapse. The mice are then observed for a period of 10 min, and the number of writhes is recorded for each animal. The formula for computing percent inhibition is [formula]
The time period with the maximum percent of inhibition is considered the peak time. A dose-response is reserved for interesting compounds or those which inhibit writhing by 70% or more. A dose-response is run in the same manner as a time-response except 10 animals per group are tested at the peak time of drug activity. Fifty animals, divided among four drug groups and one vehicle control group, are employed. The mice are normally given four doses of drug, each twice the amount of the preceding dose. An ED50 is calculated by a computer linear regression analysis.

## CN1CCC(C2Oc3cnccc3N(C)n3cccc32)CC1 (stereo not drawn) [5-Methyl-10-(1-methyl-4-piperidinyl)-5H,10H-pyrido[3,4-b]pyrrolo[1,2-e][1,4,5]oxadiazepine]
  % Inhibition of Writhing @ 20 mg/kg, s.c.: 47%

## CN1c2ccncc2OCc2cccn21 [5-Methyl-5H,10H-pyrido[3,4-b]pyrrolo[1,2-e][1,4,5]-oxadiazepine]
  % Inhibition of Writhing @ 20 mg/kg, s.c.: 58%

## CC(C)=CCN1CCC2(C)c3cc(O)ccc3CC1C2C (stereo not drawn) [Pentazocine, reference compound]
At the dose of 1.3 mg/kg, s.c. (footnote *)
  % Inhibition of Writhing: 50%
